The values below come from ChEMBL document CHEMBL3351881, “Chemical constituents isolated from Disporum viridescens leaves and their inhibitory effect on nitric oxide production in BV2 microglial cells” (Bioorg Med Chem Lett, 2014).

SMILES strings stand for the structures. The source made the active and inactive calls. The rule behind the calls is not given here.

Test [1] has as its system BV-2. Nature of the test: Neuroprotective effect in […] cells assessed as LPS-induced nitric oxide production at 10 to 100 uM incubated for 1 hr prior to LPS challenge measured after 24 hrs by Griess assay. It is filed as functional, cell-based. The note with it: Mus musculus.
In test [2] the test system is BV-2. Nature of the test: Inhibition of LPS-induced iNOS protein expression in […] cells at 0.1 uM by Western blotting analysis. Type of test: functional, cell-based. (In western blotting, separated proteins are transferred to a membrane and probed.)
The test system of test [3] is BV-2. Nature of the test: Inhibition of LPS-induced COX-2 protein expression in […] cells at 0.1 uM by Western blotting analysis. Type of test: functional, cell-based.
The subject of test [4] is BV-2. Nature of the test: Inhibition of LPS-induced ERK phosphorylation in […] cells at 0.1 uM by Western blotting analysis. Type of test: cell-based.
In test [5] the target is T1, NF-kappa-B inhibitor alpha (Homo sapiens) (UniProt P25963).
T1 sequence (whole entry): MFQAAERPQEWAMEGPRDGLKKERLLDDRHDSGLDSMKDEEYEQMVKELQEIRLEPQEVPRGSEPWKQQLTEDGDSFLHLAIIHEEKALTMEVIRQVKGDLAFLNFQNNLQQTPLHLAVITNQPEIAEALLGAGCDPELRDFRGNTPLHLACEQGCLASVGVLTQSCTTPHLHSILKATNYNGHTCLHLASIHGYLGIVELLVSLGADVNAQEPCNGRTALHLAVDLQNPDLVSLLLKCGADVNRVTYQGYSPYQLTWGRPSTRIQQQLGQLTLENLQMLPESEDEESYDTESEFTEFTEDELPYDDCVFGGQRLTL
The test can be described thus: Inhibition of LPS-induced IkB-alpha degradation in […] cells at 0.1 uM by Western blotting analysis. Type of test: cell-based. Particulars: BV-2.

Test [6] concerns c-Jun N-terminal kinase, JNK (Mus musculus). Nature of the test: Inhibition of LPS-induced JNK phosphorylation in mouse BV2 cells at 0.1 uM by Western blotting analysis. The note with it: BV-2.
Test [7] has as its system MAP kinase p38 (Mus musculus). Nature of the test: Inhibition of LPS-induced p38 phosphorylation in mouse BV2 cells at 0.1 uM by Western blotting analysis. The note with it: BV-2.

In the case of `COc1cc([C@H]2OC[C@@]3(O[C@@H]4O[C@H](CO)[C@@H](O)[C@H](O)[C@H]4O)C2CO[C@@H]3c2ccc(O)c(OC)c2)ccc1O` (some centres not stated), the result in test [1] was Active.

Turning to `COc1cc([C@H]2Oc3c(O)cc(CCCO)cc3[C@@H]2CO)ccc1O`, in test [1], the outcome was Active. Moreover, the inhibition result in test [2] and in test [3] was “Active” in each case.

On to `COc1cc([C@H]2O[C@H](O)C3C2CO[C@@H]3c2ccc(O)c(OC)c2)ccc1O` (some centres not stated), for which the outcome in test [1] was Active. Further, the inhibition result in test [2], in test [3], in test [4], in test [6] and in test [7] was “Active” in each case. Further, the inhibition result in test [5] was “inactive”.

As for `COc1cc([C@H]2Oc3c(OC)cc(CCCO)cc3[C@@H]2CO[C@@H]2O[C@H](CO)[C@@H](O)[C@H](O)[C@H]2O)ccc1O`, in test [1], the outcome was Active.
